Here are results for 58 molecules from patent US12581252B2, “Substituted pyrrolo[3,4-b]pyridines as PI3K-α inhibitors” (Relay Therapeutics, Inc., priority 2020, dated 2026).

One test deals with H1047R PIK3CA enzyme (Homo sapiens, UniProt P42336, H1047R). As to the kind of experiment: ADP-Glo Biochemical PIK3CA Kinase Assay. In general terms: ADP-Glo first removes unused ATP, then detects ADP through luciferase.
A further test is described as follows: cells. The settings on record: Homo sapiens, MCF-10A, read-out: MCF10A IC50.

Sequence of H1047R PIK3CA enzyme (P42336 whole entry H1047R): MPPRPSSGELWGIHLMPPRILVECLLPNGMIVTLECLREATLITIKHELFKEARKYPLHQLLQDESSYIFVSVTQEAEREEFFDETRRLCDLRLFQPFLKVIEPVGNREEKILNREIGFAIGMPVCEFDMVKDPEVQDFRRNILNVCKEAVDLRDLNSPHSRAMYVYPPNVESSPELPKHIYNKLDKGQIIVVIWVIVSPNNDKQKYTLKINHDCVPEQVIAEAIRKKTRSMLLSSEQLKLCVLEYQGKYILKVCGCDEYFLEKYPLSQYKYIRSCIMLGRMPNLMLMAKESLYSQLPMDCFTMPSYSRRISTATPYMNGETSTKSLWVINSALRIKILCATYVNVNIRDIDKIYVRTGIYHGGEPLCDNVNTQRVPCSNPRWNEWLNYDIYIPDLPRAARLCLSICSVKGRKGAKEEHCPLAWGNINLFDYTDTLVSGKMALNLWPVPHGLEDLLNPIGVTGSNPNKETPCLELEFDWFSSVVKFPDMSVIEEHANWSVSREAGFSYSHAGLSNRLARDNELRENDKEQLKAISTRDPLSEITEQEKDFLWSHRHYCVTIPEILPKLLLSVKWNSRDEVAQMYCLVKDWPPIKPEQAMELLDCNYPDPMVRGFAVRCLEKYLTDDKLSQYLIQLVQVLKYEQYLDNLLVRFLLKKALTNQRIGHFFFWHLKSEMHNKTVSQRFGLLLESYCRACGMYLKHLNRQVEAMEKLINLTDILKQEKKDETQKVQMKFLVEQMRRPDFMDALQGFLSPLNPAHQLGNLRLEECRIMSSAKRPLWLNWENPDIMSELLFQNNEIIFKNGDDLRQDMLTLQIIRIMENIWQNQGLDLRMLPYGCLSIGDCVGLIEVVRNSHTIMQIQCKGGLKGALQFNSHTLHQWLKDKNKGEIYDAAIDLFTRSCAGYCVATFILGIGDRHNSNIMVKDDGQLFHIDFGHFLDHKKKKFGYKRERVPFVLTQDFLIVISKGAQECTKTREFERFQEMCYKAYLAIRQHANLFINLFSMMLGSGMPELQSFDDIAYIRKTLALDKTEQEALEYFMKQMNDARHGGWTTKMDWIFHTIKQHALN
Sequence of H1047R PIK3CA enzyme (P27986 whole entry partner): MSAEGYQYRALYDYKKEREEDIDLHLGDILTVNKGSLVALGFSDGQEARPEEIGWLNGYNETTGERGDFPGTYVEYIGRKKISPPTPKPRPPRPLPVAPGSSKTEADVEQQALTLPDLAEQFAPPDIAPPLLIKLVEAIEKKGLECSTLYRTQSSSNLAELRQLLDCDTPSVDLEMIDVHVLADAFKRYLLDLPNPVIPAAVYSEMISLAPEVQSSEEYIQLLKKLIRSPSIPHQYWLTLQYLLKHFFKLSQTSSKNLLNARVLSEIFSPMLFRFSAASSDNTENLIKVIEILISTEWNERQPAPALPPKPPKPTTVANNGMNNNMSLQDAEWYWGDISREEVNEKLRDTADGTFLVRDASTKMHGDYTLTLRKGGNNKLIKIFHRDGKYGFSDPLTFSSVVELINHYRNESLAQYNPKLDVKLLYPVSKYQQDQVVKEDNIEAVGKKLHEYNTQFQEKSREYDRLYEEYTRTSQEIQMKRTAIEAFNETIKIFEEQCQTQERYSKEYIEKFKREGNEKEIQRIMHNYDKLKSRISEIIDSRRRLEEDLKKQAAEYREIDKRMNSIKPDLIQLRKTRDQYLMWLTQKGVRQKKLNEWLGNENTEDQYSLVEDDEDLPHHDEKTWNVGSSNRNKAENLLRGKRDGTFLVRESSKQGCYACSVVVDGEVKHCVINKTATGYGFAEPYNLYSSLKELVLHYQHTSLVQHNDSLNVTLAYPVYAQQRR

As for `O=C1NC(c2cc(F)ccc2Cl)c2c(NC(=O)N3CC(C(F)F)c4ccccc43)cccc21` (mixture of isomers) [Compound I-2246], the IC50 against H1047R PIK3CA enzyme is at most 100 nM; in “cells” it was 1000 to 5000 nM.

In the case of `O=C1NC(c2cc(F)ccc2Cl)c2c(NC(=O)N3CC(O)c4cc(F)ccc43)cc(-n3cncn3)cc21` (mixture of isomers) [Compound I-2414], the IC50 at H1047R PIK3CA enzyme lay in the range of 100 to 500 nM; in “cells” it was 10000 to 36000 nM.

For the molecule `O=C1NC(c2cc(F)ccc2Cl)c2c(NC(=O)N3CC(O)(C(F)F)c4ccccc43)cccc21` (mixture of isomers) [Compound I-2423], the IC50 against H1047R PIK3CA enzyme is at most 100 nM; in the test “cells”, 1000 to 5000 nM.

With `O=C1NC(c2cc(F)ccc2Cl)c2c(NC(=O)N3CC(O)c4ccc(Cl)cc43)cccc21` (mixture of isomers) [Compound I-2464], the IC50 at H1047R PIK3CA enzyme is at most 100 nM; in the test “cells”, 5000 to 10000 nM. With `O=C1NC(c2cc(F)ccc2Cl)c2c(NC(=O)N3CC(O)(C(F)(F)F)c4cc(F)ccc43)cc(Cl)cc21` (mixture of isomers) [Compound I-2482], the half-maximal inhibitory concentration (IC50) against H1047R PIK3CA enzyme is at most 100 nM; in “cells”, below 1000 nM.

For `O=C1NC(c2cc(F)ccc2Cl)c2c(NC(=O)N3CC(O)(C(F)(F)F)c4ccccc43)cc(Cl)cc21` (mixture of isomers) [Compound I-2483], the IC50 is at most 100 nM at H1047R PIK3CA enzyme and below 1000 nM in the test “cells”.

Turning to `O=C1NC(c2cc(F)ccc2Cl)c2c(NC(=O)N3CC(O)(C(F)F)c4cc(F)ccc43)cccc21` (mixture of isomers) [Compound I-2488], the IC50 against H1047R PIK3CA enzyme was at most 100 nM; in the test “cells” it was 1000 to 5000 nM.

Take `N#CC1(COc2cc(NC(=O)N3CC(O)c4cc(F)ccc43)c3c(c2)C(=O)NC3c2cc(F)ccc2Cl)CC1` (mixture of isomers) [Compound I-2489]: the IC50 on H1047R PIK3CA enzyme is at most 100 nM; in “cells” it was 5000 to 10000 nM. The matching figures for `N#CCc1cc(NC(=O)N2CC(O)(C(F)(F)F)c3ccccc32)c2c(c1)C(=O)NC2c1cc(F)ccc1Cl` (mixture of isomers) [Compound I-2585]: at most 100 nM and below 1000 nM. The matching figures for `N#CCc1cc(NC(=O)N2CC(O)(C(F)(F)F)c3cc(F)ccc32)c2c(c1)C(=O)NC2c1cc(F)ccc1Cl` (mixture of isomers) [Compound I-2596]: at most 100 nM and below 1000 nM. For `CNC(=O)c1cc(NC(=O)c2csc3ccccc23)c2c(c1)C(=O)NC2c1ccccc1C` (racemic) [Compound I-6, 7-(Benzo[b]thiophene-3-carboxamido)-N-methyl-3-oxo-1-(o-tolyl)isoindoline-5-carboxamide] the same measures were at most 100 nM and below 1000 nM. Turning to `N#CCc1cc(NC(=O)c2cc(F)cc(C(F)(F)F)c2)c2c(c1)C(=O)N[C@H]2c1cc(F)ccc1Cl` (racemic) [Compound I-1088], the IC50 is at most 100 nM at H1047R PIK3CA enzyme and below 1000 nM in the test “cells”. The matching figures for `O=C(Nc1cc(-c2ccc3ncnn3c2)cc2c1[C@H](c1cc(F)ccc1Cl)NC2=O)c1cc(F)cc(C(F)(F)F)c1` (single isomer, unassigned) [Compound I-945]: at most 100 nM and below 1000 nM.

In the case of `Cn1cc(Nc2cc(NC(=O)c3cc(F)cc(C(F)(F)F)c3)c3c(c2)C(=O)N[C@H]3c2cc(F)ccc2Cl)cn1` (single isomer, unassigned) [Compound I-997], the IC50 is at most 100 nM against H1047R PIK3CA enzyme and below 1000 nM in “cells”. Turning to `N#Cc1c(-c2cc(NC(=O)c3cc(F)cc(C(F)(F)F)c3)c3c(c2)C(=O)N[C@@H]3c2cc(F)ccc2Cl)ccc2ncnn12` (single isomer, unassigned) [Compound I-1647], in “cells”, the IC50 was in the range of 1000 to 5000 nM. Same read-out and setting: the figure for `N#Cc1c(-c2cc(NC(=O)c3cc(F)cc(C(F)(F)F)c3)c3c(c2)C(=O)N[C@H]3c2cc(F)ccc2Cl)ccc2ncnn12` (single isomer, unassigned) [Compound I-1648] is below 1000 nM. On to `O=C1NC(c2cc(F)ccc2Cl)c2c(NC(=O)n3ncc4ccccc43)cccc21` (stereo not drawn) [Compound I-2373], for which, on H1047R PIK3CA enzyme, the IC50 fell in the range of 100 to 500 nM. On the same count and under the same terms, the figure for `O=C1NC(c2cc(F)ccc2Cl)c2c(NC(=O)C3CCc4ccccc4CC3)cccc21` (stereo not drawn) [Compound I-2374] is 10000 to 100000 nM; for `O=C1NC(c2cc(F)ccc2Cl)c2c(NC(=O)N3CCCC34CCC4)cc(Br)cc21` (stereo not drawn) [Compound I-2377] it is 500 to 1000 nM; for `Cc1nn(C(=O)Nc2cccc3c2C(c2cc(F)ccc2Cl)NC3=O)c2ccccc12` (stereo not drawn) [Compound I-2380] it is 500 to 1000 nM. `Nc1nn(C(=O)Nc2cccc3c2C(c2cc(F)ccc2Cl)NC3=O)c2ccccc12` (stereo not drawn) [Compound I-2381] gave an IC50 against H1047R PIK3CA enzyme of 100 to 500 nM.

In turn, `O=C(Nc1cccc2c1C(c1cc(F)ccc1Cl)NC2=O)Nc1n[nH]c2ccccc12` (stereo not drawn) [Compound I-2382] registered a half-inhibitory concentration (IC50) at H1047R PIK3CA enzyme of 1000 to 10000 nM.

On to `CCCCc1ccc(Cl)c(C2NC(=O)c3cccc(NC(=O)c4cc(O)cc(C(F)(F)F)c4)c32)c1` (stereo not drawn) [Compound I-2391], for which, on H1047R PIK3CA enzyme, the IC50 is 1000 to 10000 nM. `O=C1NC(c2cc(F)ccc2Cl)c2c(NC(=O)c3ncsc3Br)cccc21` (stereo not drawn) [Compound I-2397] came in with a 50% inhibitory concentration (IC50) at H1047R PIK3CA enzyme of 1000 to 10000 nM. The same measure, in the same setting: the figure for `O=C1NC(c2cc(F)ccc2Cl)c2c(NC(=O)N3CCC(C4CC4)C3)cccc21` (stereo not drawn) [Compound I-2398] is 10000 to 100000 nM; for `N#Cc1cnn(-c2cc(NC(=O)N3C[C@H](O)c4cc(F)ccc43)c3c(c2)C(=O)N[C@H]3c2cc(F)ccc2Cl)c1` [Compound I-2403] it is at most 100 nM. On H1047R PIK3CA enzyme, `N#Cc1cnn(-c2cc(NC(=O)N3CC(O)c4cc(F)ccc43)c3c(c2)C(=O)NC3c2cc(F)ccc2Cl)c1` (stereo not drawn) [Compound I-2404] displayed a 50% inhibitory concentration (IC50) of 100 to 500 nM. At H1047R PIK3CA enzyme, `O=C1NC(c2cc(F)ccc2Cl)c2c(NC(=O)N3CCCC3C3CC3)cccc21` (stereo not drawn) [Compound I-2408] came in with an IC50 of 10000 to 100000 nM. Still for that read-out and setting: the figure for `O=C1NC(c2cc(F)ccc2Cl)c2c(NC(=O)N3CC(O)(c4scnc4C(F)(F)F)C3)cccc21` (stereo not drawn) [Compound I-2417] is 10000 to 100000 nM; for `CCC1CCN(C(=O)Nc2cccc3c2C(c2cc(F)ccc2Cl)NC3=O)C1` (stereo not drawn) [Compound I-2420] it is 10000 to 100000 nM; for `O=C1N[C@@H](c2cc(F)ccc2Cl)c2c(NC(=O)N3CC[C@H]4CCCC[C@H]43)cccc21` [Compound I-2422] it is 1000 to 10000 nM. Turning to `O=C1NC(c2cc(F)ccc2Cl)c2c(NC(=O)N3CCCC34CCCC4)cc(Br)cc21` (stereo not drawn) [Compound I-2424], at H1047R PIK3CA enzyme, the half-inhibitory concentration (IC50) was 500 to 1000 nM. The same measure, in the same setting: the figure for `N#Cc1cccc2c1CCN2C(=O)Nc1cccc2c1C(c1cc(F)ccc1Cl)NC2=O` (stereo not drawn) [Compound I-2425] is 10000 to 100000 nM; for `N#Cc1ccc2c(c1)CCN2C(=O)Nc1cccc2c1C(c1cc(F)ccc1Cl)NC2=O` (stereo not drawn) [Compound I-2426] it is 10000 to 100000 nM. Still for that read-out and setting: the figure for `N#Cc1ccc2c(c1)N(C(=O)Nc1cccc3c1C(c1cc(F)ccc1Cl)NC3=O)CC2` (stereo not drawn) [Compound I-2427] is 1000 to 10000 nM. Still for that read-out and setting: the figure for `O=C1NC(c2cc(F)ccc2Cl)c2c(NC(=O)N3CCSC3)cccc21` (stereo not drawn) [Compound I-2428] is 10000 to 100000 nM; for `O=C1NC(c2cc(F)ccc2Cl)c2c(NC(=O)N3CC4C5CCC(C5)C43)cccc21` (stereo not drawn) [Compound I-2429] it is 10000 to 100000 nM; for `O=C1NC(c2cc(F)ccc2Cl)c2c(NC(=O)N3CCCC34CCCCC4)cccc21` (stereo not drawn) [Compound I-2430] it is 500 to 1000 nM.

`Nc1nn(C(=O)Nc2cccc3c2C(c2cc(F)ccc2Cl)NC3=O)c2ccc(F)cc12` (stereo not drawn) [Compound I-2431] registered a half-inhibitory concentration (IC50) against H1047R PIK3CA enzyme of 500 to 1000 nM. On the same count and under the same terms, the figure for `CCN(C(=O)Nc1cccc2c1C(c1cc(F)ccc1Cl)NC2=O)c1ccc(F)cc1` (stereo not drawn) [Compound I-2434] is 10000 to 100000 nM; for `CN(C(=O)Nc1cccc2c1C(c1cc(F)ccc1Cl)NC2=O)c1ccc(F)cc1` (stereo not drawn) [Compound I-2435] it is 10000 to 100000 nM. For the molecule `O=C1NC(c2cc(F)ccc2Cl)c2c(NC(=O)N3CCc4cc(C(F)(F)F)ccc43)cccc21` (stereo not drawn) [Compound I-2436], the IC50 against H1047R PIK3CA enzyme was in the range of 10000 to 100000 nM. On the same count and under the same terms, the figure for `COc1ccc2c(c1)CCN2C(=O)Nc1cccc2c1C(c1cc(F)ccc1Cl)NC2=O` (stereo not drawn) [Compound I-2437] is 10000 to 100000 nM; for `Cc1cccc2c1CCN2C(=O)Nc1cccc2c1C(c1cc(F)ccc1Cl)NC2=O` (stereo not drawn) [Compound I-2438] it is 1000 to 10000 nM. Same read-out and setting: the figure for `COc1ccc2c(c1)N(C(=O)Nc1cccc3c1C(c1cc(F)ccc1Cl)NC3=O)CC2` (stereo not drawn) [Compound I-2439] is 1000 to 10000 nM; for `Cc1ccc2c(c1)CCN2C(=O)Nc1cccc2c1C(c1cc(F)ccc1Cl)NC2=O` (stereo not drawn) [Compound I-2440] it is 10000 to 100000 nM.

As for `O=C1NC(c2cc(F)ccc2Cl)c2c(NC(=O)N3CCc4c(Cl)cccc43)cccc21` (stereo not drawn) [Compound I-2442], the IC50 against H1047R PIK3CA enzyme was in the range of 1000 to 10000 nM. For `O=C1NC(c2cc(F)ccc2Cl)c2c(NC(=O)N3CCc4ccc(C(F)(F)F)cc43)cccc21` (stereo not drawn) [Compound I-2447], at H1047R PIK3CA enzyme, the IC50 fell in the range of 1000 to 10000 nM. On the same count and under the same terms, the figure for `CC(C)c1cc(N)n(C(=O)Nc2cccc3c2C(c2cc(F)ccc2Cl)NC3=O)n1` (stereo not drawn) [Compound I-2465] is 10000 to 100000 nM; for `CC(C)c1cc(N)nn1C(=O)Nc1cccc2c1C(c1cc(F)ccc1Cl)NC2=O` (stereo not drawn) [Compound I-2466] it is 10000 to 100000 nM; for `O=C1NC(c2cc(F)ccc2Cl)c2c(NC(=O)N3CCCC34CC4)cccc21` (stereo not drawn) [Compound I-2467] it is 1000 to 10000 nM.

On to `O=C1NC(c2cc(F)ccc2Cl)c2c(NC(=O)N3CCC4(CC4)C3)cccc21` (stereo not drawn) [Compound I-2468], for which, on H1047R PIK3CA enzyme, the IC50 is 10000 to 100000 nM.

For `Cc1ccc2c(c1)N(C(=O)Nc1cccc3c1C(c1cc(F)ccc1Cl)NC3=O)CC2` (stereo not drawn) [Compound I-2470], on H1047R PIK3CA enzyme, the half-maximal inhibitory concentration (IC50) was 100 to 500 nM. Still for that read-out and setting: the figure for `O=C1NC(c2cc(F)ccc2Cl)c2c(NC(=O)N3CCc4ccc(OC(F)(F)F)cc43)cccc21` (stereo not drawn) [Compound I-2480] is 1000 to 10000 nM; for `O=C1NC(c2cc(F)ccc2Cl)c2c(NC(=O)N3CCc4cc(OC(F)(F)F)ccc43)cccc21` (stereo not drawn) [Compound I-2481] it is 1000 to 10000 nM. On the same count and under the same terms, the figure for `CC1(Cc2cc(NC(=O)N3CC(O)c4cc(F)ccc43)c3c(c2)C(=O)NC3c2cc(F)ccc2Cl)COC1` (stereo not drawn) [Compound I-2490] is 500 to 1000 nM; for `O=C1NC(c2cc(F)ccc2Cl)c2c(NC(=O)N3CCc4c3cccc4C(F)(F)F)cccc21` (stereo not drawn) [Compound I-2498] it is 1000 to 10000 nM; for `CNc1cc(NC(=O)N2C[C@](O)(C(F)F)c3cc(F)ccc32)c2c(c1)C(=O)N[C@@H]2c1cc(F)ccc1Cl` [Compound I-2677] it is at most 100 nM.

The term IC50 denotes the concentration needed to halve the response being measured.
